Results reported in patent US20120202794A1 (priority 2011, published 2012).

Experiments:
HCV Replicon 1b = test: HCV inhibition assay, HCV replicon 1b (Clone A or ET-lunet cells; RT-PCR or luciferase reporter); type: cell-based; conditions: Hepatitis C virus, 96 h, HCV replicon 1b; 4 days incubation; read-out: Replicon 1b potency EC90
Method in brief: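 Inhibition read either as luciferase signal (ET replicon) or as HCV 5′-NTR RNA by RT-PCR relative to rRNA, % = (1−2^−ΔΔCt)×100, against DMSO controls, giving EC50 and EC90. Cells: Clone A or ET-lunet, seeded 1500 or 3000/well, exposed 4 days at 37 °C, 5% CO2, 0.5% DMSO.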

[1] = Cell cytotoxicity assay (MTS), CC90 as reported in Table 1, cell line not stated; type: cell-based; conditions: human; MTS assay; 8 days incubation; cell line not given
Method in brief: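 MTS read-out (490 nm, 2 h dye step) after 8-day exposure at 37° C. Huh7, HepG2, BxPC3 were seeded at 2×10^3 and CEM at 5×10^3 cells/well, with compound serially diluted from 100 μM. CC90 comes from comparison with untreated control wells.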

| Structure (SMILES) | EC90 (HCV Replicon 1b) [µM] | CC90 at 8 days [1] [µM] |
| --- | --- | --- |
| CCC[C@H]1CN(C(=O)[C@@H]2C[C@H]2c2ccc(C(C)(C)C)cc2)[C@@H](CC(C)C)C(=O)N1 [Compound 334, (3S,6S)-4-((1R,2R)-2-(4-(tert-butyl)phenyl)cyclopropanecarbonyl)-3-isobutyl-6-propyl-pylpiperazin-2-one] | 0.9 | > 10 |
| O=C1N[C@@H](c2ccccc2)CN(C(=O)c2cc(-c3ccc(F)cc3)on2)[C@H]1CC1CC1 [Compound 336, (3S,6S)-3-(cyclopropylmethyl)-4-(5-(4-fluorophenyl)isoxazole-3-carbonyl)-6-phenylpiperazin-2-one] | 0.36 | > 10 |
| O=C1N[C@@H](c2ccccc2)CN(C(=O)[C@@H]2C[C@H]2c2ccccc2)[C@H]1CC1CC1 [Compound 338, (3S,6S)-3-(cyclopropylmethyl)-6-phenyl-4-((1R,2R)-2-phenylcyclopropanecarbonyl)-piperazin-2-one] | 5.07 | > 10 |
| CC[C@@H](C)[C@H]1C(=O)N[C@@H](c2ccccc2)CN1C(=O)c1cc(-c2ccc(F)cc2)on1 [Compound 339, (3S,6S)-3-((R)-sec-butyl)-4-(5-(4-fluorophenyl)isoxazole-3-carbonyl)-6-phenylpiperazin-2-one] | 0.8 | > 10 |
| CC[C@@H](C)[C@H]1C(=O)N[C@@H](c2ccccc2)CN1C(=O)[C@@H]1C[C@H]1c1ccccc1 [Compound 341, (3S,6S)-3-((R)-sec-butyl)-6-phenyl-4-((1R,2R)-2-phenylcyclopropanecarbonyl)-piperazin-2-one] | 2.54 | > 10 |
| CC(C)(C)C[C@H]1C(=O)N[C@@H](c2ccccc2)CN1C(=O)c1cc(-c2ccc(F)cc2)on1 [Compound 342, (3S,6S)-4-(5-(4-fluorophenyl)isoxazole-3-carbonyl)-3-neopentyl-6-phenylpiperazin-2-one] | 0.2 | > 10 |
| CC(C)(C)C[C@H]1C(=O)N[C@@H](c2ccccc2)CN1C(=O)[C@@H]1C[C@H]1c1ccccc1 [Compound 344, (3S,6S)-3-neopentyl-6-phenyl-4-((1R,2R)-2-phenylcyclopropanecarbonyl)piperazin-2-one] | 1 | > 10 |
| CC(C)C[C@H]1C(=O)N[C@@H](c2ccc(F)cc2)CN1C(=O)c1cc(-c2ccc(F)cc2)on1 [Compound 345, (3S,6S)-6-(4-fluorophenyl)-4-(5-(4-fluorophenyl)isoxazole-3-carbonyl)-3-isobutyl-piperazin-2-one] | 0.65 | > 10 |
| CC(C)C[C@H]1C(=O)N[C@@H](c2ccc(F)cc2)CN1C(=O)[C@@H]1C[C@H]1c1ccccc1 [Compound 347, (3S,6S)-6-(4-fluorophenyl)-3-isobutyl-4-((1R,2R)-2-phenylcyclopropanecarbonyl)-piperazin-2-one] | 2.05 | > 10 |
| Cc1ccc([C@H]2CN(C(=O)c3cc(-c4ccc(F)cc4)on3)[C@@H](CC(C)C)C(=O)N2)cc1 [Compound 348, (3S,6S)-4-(5-(4-fluorophenyl)isoxazole-3-carbonyl)-3-isobutyl-6-(p-tolyl)piperazin-2-one] | 1.8 | > 10 |
| CC(C)C[C@H]1CN(C(=O)c2cn(-c3ccc(Cl)cc3)nn2)[C@@H](CC(C)C)C(=O)N1 [Compound 350, (3S,6S)-4-(1-(4-chlorophenyl)-1H-1,2,3-triazole-4-carbonyl)-3,6-diisobutylpiperazin-2-one] | 1.96 | > 10 |
| CC(C)C[C@H]1CN(C(=O)c2cn(-c3ccc(F)cc3)nn2)[C@@H](CC(C)C)C(=O)N1 [Compound 351, (3S,6S)-4-(1-(4-fluorophenyl)-1H-1,2,3-triazole-4-carbonyl)-3,6-diisobutylpiperazin-2-one] | 1.63 | > 10 |
| CC(C)C[C@H]1C(=O)N[C@@H](c2ccccc2Cl)CN1C(=O)c1cc(-c2ccc(F)cc2)on1 [Compound 352, (3S,6S)-6-(2-chlorophenyl)-4-(5-(4-fluorophenyl)isoxazole-3-carbonyl)-3-isobutyl-piperazin-2-one] | 0.21 | > 10 |
